Experimental data reported in patent publication US7452887B2, “Quinoline- and isoquinoline-based compounds exhibiting ATP-utilizing enzyme inhibitory activity, and compositions, and uses thereof” (Amphora Discovery Corporation, priority 2004, dated 2008).

What was measured:
Test in all cases: HTS ATP-utilizing enzyme assay, off-chip mobility-shift (Caliper HTS 250)
Assay type in all cases: biochemical
Conditions in all cases: test compound 10 μM, kinase listed = active (greater than six-sigma from the mean activity of inactive compounds)
PRAK = biological target: T1, PRAK (Homo sapiens, UniProt Q8IW41)
T1 sequence (Q8IW41 1-473): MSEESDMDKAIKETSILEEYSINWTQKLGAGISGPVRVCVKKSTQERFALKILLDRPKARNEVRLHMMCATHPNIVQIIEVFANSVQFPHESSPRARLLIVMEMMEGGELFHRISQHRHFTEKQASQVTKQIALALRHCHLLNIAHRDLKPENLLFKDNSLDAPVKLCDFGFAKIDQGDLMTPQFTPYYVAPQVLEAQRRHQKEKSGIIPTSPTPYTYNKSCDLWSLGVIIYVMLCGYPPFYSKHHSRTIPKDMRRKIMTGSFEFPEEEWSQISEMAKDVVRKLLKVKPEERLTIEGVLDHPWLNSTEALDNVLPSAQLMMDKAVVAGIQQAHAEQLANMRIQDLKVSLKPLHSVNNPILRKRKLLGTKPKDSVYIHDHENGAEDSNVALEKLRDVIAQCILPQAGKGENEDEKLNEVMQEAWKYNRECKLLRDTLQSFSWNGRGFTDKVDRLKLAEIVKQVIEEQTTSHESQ
In short: (§1)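 Test compound at 10 μM final was incubated with kinase and peptide substrate in HEPES pH 7.5 buffer with Triton X-100 and BSA for 2.5 hrs at 20° C. to 22° C., then stopped with EDTA. Inhibition came from the substrate-to-phosphorylated-product ratio on a microfluidic mobility-shift read. EDTA wells served as 100% control.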

AKT3 = AKT3 (Homo sapiens, UniProt Q9Y243)
AKT3, sequence (Q9Y243 whole entry): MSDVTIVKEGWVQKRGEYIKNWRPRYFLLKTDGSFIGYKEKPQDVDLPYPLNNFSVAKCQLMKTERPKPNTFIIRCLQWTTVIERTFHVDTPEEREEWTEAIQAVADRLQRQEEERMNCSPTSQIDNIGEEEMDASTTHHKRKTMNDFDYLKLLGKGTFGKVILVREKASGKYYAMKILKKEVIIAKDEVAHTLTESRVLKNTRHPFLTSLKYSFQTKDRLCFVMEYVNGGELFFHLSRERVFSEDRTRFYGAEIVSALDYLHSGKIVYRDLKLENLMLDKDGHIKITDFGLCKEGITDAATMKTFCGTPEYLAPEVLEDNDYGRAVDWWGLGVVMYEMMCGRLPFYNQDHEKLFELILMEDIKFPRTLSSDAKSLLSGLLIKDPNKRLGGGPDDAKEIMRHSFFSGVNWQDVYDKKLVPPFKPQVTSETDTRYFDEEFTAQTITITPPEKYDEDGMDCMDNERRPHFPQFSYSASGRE
In short: as §1

NEK2 = biological target: T2, NEK2 (Homo sapiens, UniProt P51955)
T2 sequence (P51955 1-445): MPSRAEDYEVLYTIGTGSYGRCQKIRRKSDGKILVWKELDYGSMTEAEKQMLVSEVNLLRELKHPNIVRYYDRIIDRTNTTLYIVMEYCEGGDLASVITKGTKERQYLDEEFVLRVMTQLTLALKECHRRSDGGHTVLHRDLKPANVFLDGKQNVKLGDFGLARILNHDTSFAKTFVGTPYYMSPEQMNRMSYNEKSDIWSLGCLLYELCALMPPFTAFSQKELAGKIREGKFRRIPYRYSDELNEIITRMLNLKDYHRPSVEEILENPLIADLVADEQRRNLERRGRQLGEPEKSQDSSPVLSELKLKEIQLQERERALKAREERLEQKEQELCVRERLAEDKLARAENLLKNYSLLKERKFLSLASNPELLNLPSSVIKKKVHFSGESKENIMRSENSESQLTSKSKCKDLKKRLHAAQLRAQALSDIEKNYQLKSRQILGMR
In short: as §1

AKT1 = AKT1 (Homo sapiens, UniProt P31749)
AKT1, sequence (P31749 whole entry): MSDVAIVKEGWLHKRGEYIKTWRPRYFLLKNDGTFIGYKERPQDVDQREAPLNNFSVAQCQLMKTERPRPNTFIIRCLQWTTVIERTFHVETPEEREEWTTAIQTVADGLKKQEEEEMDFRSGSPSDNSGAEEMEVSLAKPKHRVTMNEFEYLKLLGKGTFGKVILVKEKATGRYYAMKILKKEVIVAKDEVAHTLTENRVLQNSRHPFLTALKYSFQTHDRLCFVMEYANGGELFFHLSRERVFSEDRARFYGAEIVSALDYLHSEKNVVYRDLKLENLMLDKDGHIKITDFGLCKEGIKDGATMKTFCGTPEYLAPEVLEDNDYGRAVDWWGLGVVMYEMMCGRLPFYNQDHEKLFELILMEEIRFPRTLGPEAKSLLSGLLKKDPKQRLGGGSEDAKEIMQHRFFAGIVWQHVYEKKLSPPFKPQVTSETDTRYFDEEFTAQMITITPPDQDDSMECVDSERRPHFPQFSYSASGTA
In short: as §1

MAPKAPK2 = MAPKAPK2 (Homo sapiens, UniProt P49137)
MAPKAPK2, sequence (P49137 whole entry): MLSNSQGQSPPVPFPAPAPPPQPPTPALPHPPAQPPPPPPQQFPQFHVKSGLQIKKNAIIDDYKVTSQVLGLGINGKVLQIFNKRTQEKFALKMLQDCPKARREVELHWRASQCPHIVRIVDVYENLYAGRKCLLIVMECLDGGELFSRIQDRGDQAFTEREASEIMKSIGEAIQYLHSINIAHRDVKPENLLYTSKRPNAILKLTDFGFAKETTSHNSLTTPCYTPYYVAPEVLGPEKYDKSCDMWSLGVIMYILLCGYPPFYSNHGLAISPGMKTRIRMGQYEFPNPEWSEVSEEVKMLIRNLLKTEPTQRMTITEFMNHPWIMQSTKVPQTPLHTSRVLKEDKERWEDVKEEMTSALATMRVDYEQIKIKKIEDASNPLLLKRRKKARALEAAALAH
In short: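 Single-point screen of test compound at 10 μM against MAPKAPK2 with peptide substrate in HEPES pH 7.5 buffer (Triton X-100, BSA), 2.5 h at 20-22 °C. Substrate-to-phosphopeptide ratio was read by off-chip microfluidic mobility shift; EDTA and DMSO wells defined 100% and 0% controls, hits by six-sigma limits.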

In the case of `CN1CCN(c2ccc(Nc3ccnc4ccc(-c5cccc(C#N)c5)cc34)cc2)CC1` [3-(4-(4-(4-methylpiperazin-1-yl)phenylamino)quinolin-6-yl)benzonitrile], the Activity (PRAK) is reported as “PRAK”, the Activity (AKT3) is reported as “AKT3” and the Activity (NEK2) is reported as “NEK2”. The Activity (AKT1) was “AKT1” and the Activity (MAPKAPK2) was “MAPKAPK2”.
